Assay results: paper PMC6472066, “Characterisation of three novel α-L-arabinofuranosidases from a compost metagenome” (BMC Biotechnology, 2019)

What was measured:
Experiment in all cases: pNP release at […] nm, Michaelis-Menten fit
AFase-E3 = test system: T1, AFase-E3; type: biochemical, metagenome: high temperature compost; conditions: at the enzyme's pH and temperature optima (pH 4.0, 60 °C), 1 min; read-out: KM in mM (Std. error)
T1 construct: full-length ORF, 510 residues, 58 kDa; C-terminal His tag (pET21a, NdeI-HindIII); E. coli BL21(DE3); homo-hexamer

AFase-D3 = test system: T2, AFase-D3; type: biochemical, metagenome: high temperature compost; conditions: at the enzyme's pH and temperature optima (pH 4.5, 25 °C), 1 min; abstract gives KM range up to 0.43 mM; read-out: KM in mM (Std. error)
T2 construct: full-length ORF, 494 residues, 56 kDa; C-terminal His tag (pET21a, NdeI-XhoI); E. coli BL21(DE3); homo-hexamer; primer-encoded N-terminus MNNVVINV

AFase-H4 = test system: T3, AFase-H4; type: biochemical, uncultured bacterium (compost metagenome); conditions: at the enzyme's pH and temperature optima (pH 5.0, 60 °C), 1 min; read-out: KM in mM (Std. error)
T3 construct: full-length ORF, 489 residues, 55 kDa, no signal peptide; C-terminal His tag (pET21a, NdeI-XhoI); E. coli BL21(DE3); homo-hexamer

- Km (AFase-E3): 0.33 mM
- Km (AFase-D3): 0.38 mM
- Km (AFase-H4): 0.31 mM
Structure (SMILES): O=[N+]([O-])c1ccc(O[C@@H]2O[C@@H](CO)[C@H](O)[C@H]2O)cc1 [pNP-α-L-arabinofuranoside]
